Results from ChEMBL document CHEMBL3988442, “University of Dundee, Small-Polar-MMV Screening Library” (2021).
Where “and” joins values, the source holds several entries; their conditions need not be identical. Equal entries are not always repeated.

Experiments:
Type in all cases: functional
[1] = test system: Wolbachia pipientis; assay: Anti-Wolbachia Cell-Based Screen; details: for IC50: Wolbachia pipientis
[2] = target: T1, Histidine--tRNA ligase (Leishmania infantum, UniProt A4I591); assay: Leishmania infantum Histidine tRNA synthetase (LdHisRS)
T1 sequence (A4I591 whole entry): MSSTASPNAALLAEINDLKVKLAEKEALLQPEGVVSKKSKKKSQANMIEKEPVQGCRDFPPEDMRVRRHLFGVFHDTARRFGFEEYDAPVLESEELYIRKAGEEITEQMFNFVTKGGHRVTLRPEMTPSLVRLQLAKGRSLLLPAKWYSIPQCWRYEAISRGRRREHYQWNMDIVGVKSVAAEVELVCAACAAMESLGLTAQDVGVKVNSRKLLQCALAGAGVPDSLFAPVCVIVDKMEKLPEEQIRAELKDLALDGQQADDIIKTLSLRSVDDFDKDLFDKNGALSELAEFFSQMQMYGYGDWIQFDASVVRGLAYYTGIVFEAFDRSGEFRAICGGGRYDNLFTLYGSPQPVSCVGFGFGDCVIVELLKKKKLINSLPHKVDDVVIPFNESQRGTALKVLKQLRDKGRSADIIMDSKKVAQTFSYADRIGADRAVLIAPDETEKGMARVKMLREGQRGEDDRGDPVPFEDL

[3] = target: Polyketide synthase Pks13 (Mycobacterium tuberculosis (strain ATCC 25618 / H37Rv), UniProt I6X8D2); assay: Mycobacterium tuberculosis Polyketide synthase 13 Thioesterase (PKS13)
Polyketide synthase Pks13, sequence (I6X8D2 whole entry): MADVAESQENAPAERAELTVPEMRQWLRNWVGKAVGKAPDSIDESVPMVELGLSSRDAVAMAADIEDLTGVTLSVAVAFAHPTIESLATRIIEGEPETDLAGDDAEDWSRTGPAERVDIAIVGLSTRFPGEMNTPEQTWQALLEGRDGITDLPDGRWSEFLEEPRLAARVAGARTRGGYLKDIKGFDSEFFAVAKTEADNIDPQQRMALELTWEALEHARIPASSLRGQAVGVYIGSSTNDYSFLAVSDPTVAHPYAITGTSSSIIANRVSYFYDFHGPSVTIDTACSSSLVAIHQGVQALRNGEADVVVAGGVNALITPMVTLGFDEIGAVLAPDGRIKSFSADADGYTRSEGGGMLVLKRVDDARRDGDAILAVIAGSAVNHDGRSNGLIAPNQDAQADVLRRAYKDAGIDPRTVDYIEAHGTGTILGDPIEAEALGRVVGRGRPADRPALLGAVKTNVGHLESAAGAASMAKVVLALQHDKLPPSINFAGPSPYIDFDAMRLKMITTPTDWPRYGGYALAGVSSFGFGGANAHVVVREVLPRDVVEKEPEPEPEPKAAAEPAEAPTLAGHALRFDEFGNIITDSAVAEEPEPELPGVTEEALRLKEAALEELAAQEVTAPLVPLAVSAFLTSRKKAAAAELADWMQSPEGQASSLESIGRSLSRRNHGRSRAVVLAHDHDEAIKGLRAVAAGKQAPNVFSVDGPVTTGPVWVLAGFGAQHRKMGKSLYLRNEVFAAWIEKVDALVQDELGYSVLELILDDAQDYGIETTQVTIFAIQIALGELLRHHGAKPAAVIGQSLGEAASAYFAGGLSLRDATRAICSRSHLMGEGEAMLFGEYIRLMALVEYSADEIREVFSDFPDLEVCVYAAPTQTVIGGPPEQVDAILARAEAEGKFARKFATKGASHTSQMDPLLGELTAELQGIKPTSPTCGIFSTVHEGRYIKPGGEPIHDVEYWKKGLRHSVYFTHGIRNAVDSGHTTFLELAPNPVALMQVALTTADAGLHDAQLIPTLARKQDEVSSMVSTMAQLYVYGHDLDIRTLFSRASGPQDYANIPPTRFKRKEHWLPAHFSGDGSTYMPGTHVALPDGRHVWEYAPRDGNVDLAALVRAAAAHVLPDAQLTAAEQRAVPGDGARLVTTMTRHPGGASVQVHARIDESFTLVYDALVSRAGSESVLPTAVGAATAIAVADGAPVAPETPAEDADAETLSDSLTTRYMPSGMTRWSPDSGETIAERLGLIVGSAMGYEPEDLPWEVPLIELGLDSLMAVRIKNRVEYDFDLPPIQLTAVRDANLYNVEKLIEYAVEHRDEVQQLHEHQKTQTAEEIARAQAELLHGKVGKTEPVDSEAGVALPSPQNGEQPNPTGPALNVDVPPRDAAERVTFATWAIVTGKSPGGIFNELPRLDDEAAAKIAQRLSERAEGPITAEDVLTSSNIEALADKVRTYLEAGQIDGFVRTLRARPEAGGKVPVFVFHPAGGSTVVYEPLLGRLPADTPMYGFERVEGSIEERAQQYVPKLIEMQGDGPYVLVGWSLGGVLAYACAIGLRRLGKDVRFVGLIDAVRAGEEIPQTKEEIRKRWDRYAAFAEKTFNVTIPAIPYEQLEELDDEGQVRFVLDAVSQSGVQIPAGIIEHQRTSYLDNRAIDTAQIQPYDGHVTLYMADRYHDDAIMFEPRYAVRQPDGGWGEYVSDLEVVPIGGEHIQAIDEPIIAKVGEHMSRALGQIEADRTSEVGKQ

SMILES | IC50 [1] | pIC50 [1] | IC50 [2] | IC50 [3]
COCCCN1Cc2cccc(NC(=O)C(C)(C)C)c2C1 | > 10 µM | – | – | –
Cc1cc(C)n(CC2CCCN2C(=O)CCc2ccco2)n1 (stereo not drawn) | > 10 µM | – | – | –
c1cnnc(N2CCCC2CNCc2csc(-c3ccco3)n2)c1 (stereo not drawn) | > 10 µM | – | – | –
CCOCCCC(=O)NCc1ccc(N2CCCCC2)cc1 | > 10 µM | – | – | –
Cc1ccc(CSc2nc(N)cc(NCCS(=O)(=O)N(C)C)n2)cc1 | 4.21 µM | 5.214 | – | –
Cc1csc(Nc2nccnc2C2CCCN2S(C)(=O)=O)n1 (stereo not drawn) | > 10 µM | – | – | –
COCc1noc(-c2ccc(N(C)Cc3ncccc3C)nc2)n1 | 3.11 µM | 5.66 | – | –
CCN(CC)C(=O)c1ccc(Cl)c(NC(=O)c2cc[nH]n2)c1 | 3.96 µM | 5.355 | – | –
CCc1nc(N)nc(N2CCCC3(CCN(C)CC3)CC2)c1C | > 10 µM | – | – | –
Cc1ccccc1C1CN(c2cnn(C)c(=O)c2Cl)CCO1 (stereo not drawn) | 7.69 µM | 5.107 | – | –
CC(C)Cn1ncc2cc(C(=O)N(C)Cc3cccc(O)c3)cnc21 | > 10 µM | – | – | –
Cc1nc2cc(-c3nccn3C)nn2c(N2CCCC2)c1C | 9.95 µM | < 5 | – | –
CCOc1ncccc1C(=O)N1CCCC1c1c(C)nn(C)c1OC (stereo not drawn) | > 10 µM | – | – | –
CCCNC(=O)c1ncn2c1CN(CC(C)C)S(=O)(=O)c1ccccc1-2 | > 10 µM | – | – | –
COc1cc(CNC(=O)c2csc(Br)c2)ccn1 | 5.94 µM | 5.03 | – | –
Cc1cc(NCCCNc2cccnc2)n2nc(C)c(C)c2n1 | > 10 µM | 5.158 | – | –
Cc1ncc(CN(C)Cn2nc(-c3ccccc3)oc2=O)s1 | 5 µM | 5.124 | – | –
CCOCCCn1c(NC(=O)c2cnc(C)s2)nc2ccccc21 | > 10 µM | – | – | –
CC(C(=O)N1CCCN(Cc2ccc(C#N)cc2)CC1)n1cncn1 (stereo not drawn) | > 10 µM | – | – | –

SMILES | IC50 [1] | pIC50 [1] | IC50 [2] | IC50 [3]
Cn1cc(CN2C[C@@H]3CCC[C@@H](OCc4cccnc4)[C@@H]3C2)cn1 | > 10 µM | – | – | –
N#Cc1cc(F)c(NCc2ccc(F)cc2)c(F)c1 | > 10 µM | – | – | –
CC(=O)NC(C)c1ccc(OCC2CC2)c(F)c1 (stereo not drawn) | 1.47 µM | 5.914 | – | –
CC(C)C(C(=O)N1CCCN(Cc2nccn2C)CC1)N1CCCC1 (stereo not drawn) | > 10 µM | – | – | –
CC(C(=O)N1CCCN(Cc2cnn(C)c2)CC1)n1ccnc1 (stereo not drawn) | > 10 µM | – | – | –
CCn1c(CNC(=O)Nc2nc(C)c(C)o2)nc2ccccc21 | 1.91 µM | 5.724 | – | –
Fc1ccc(N2CCCN(Cc3ccc(-c4cc[nH]n4)o3)CC2)cc1 | 6.44 µM | 5.26 | – | –
Cc1nc(N2CCC3(CCOC3)C2)c2cc[nH]c2n1 (stereo not drawn) | 2.38 µM | 5.537 | – | –
Cc1cc2nc(C(C)C)cc(NCC(c3ccccn3)N(C)C)n2n1 (stereo not drawn) | 1.75 µM | 5.809 | – | –
O=C(O)C(F)(F)F.O=C(O)c1c(-c2cccnc2)ncc2c1CCN(CC1CCOC1)C2 (stereo not drawn) | 7.49 µM | < 5 | – | –
CCCS(=O)(=O)NCc1ncc(C)c(OC)c1C | 1.37 µM | 5.88 | – | –
NC(=O)C1CCN(c2nc3nccc(-c4ccccn4)c3c(=O)[nH]2)CC1 | > 10 µM | – | – | –
CC(C)c1cc(CSCCC(=O)O)no1 | 3.09 µM | 5.282 | – | –
NC(=O)c1ccccc1-n1cc(-c2cccc(C(=O)O)c2)cn1 | – | – | 88.1 µM and > 100 µM | > 100 µM
Cc1nn(C)c2nc(N(Cc3nccs3)C3CC3)sc12 | 2.9 µM | 5.592 | – | –
CC(C)Cc1cc(C(=O)NCC2CCCN(Cc3ccco3)C2)on1 (stereo not drawn) | 1.41 µM | 5.687 | – | –
CC(c1ccco1)N(C)Cc1cccc(C(=O)Nc2nccn2C)c1 (stereo not drawn) | 3.77 µM | 5.538 | – | –
Cc1cnn(CC2CCCCN2C(=O)c2ccc(CN(C)C)cc2)c1 (stereo not drawn) | > 10 µM | – | – | –
CN(CCc1ccccc1)Cc1cc(C(=O)N2CCN(C)C(=O)C2)no1 | > 10 µM | – | – | –
